Where two headings read alike, the source gives them in different places.
How the values were obtained:
[1] = test system: Canine cardiac myofibrillar Ca++-dependent Mg++ ATPase; experiment: Measurement of myofibrillar Ca++-dependent Mg++ATPase activity (Ca++ sensitivity and maximal activity); format: biochemical, canine (dog); conditions: pH 7.0, 21° C.
Experimental: 1. Measurement of myofibrillar Ca++-dependent Mg++ATPase activity
the effect on myofibrillar Ca++sensitivity and on maximal activity of myofibrillar Ca++-dependent Mg++-ATPase was determined on canine cardiac myofibrils.
(a) Contractile protein preparation
Cardiac myofibrils free of membrane contaminants were prepared from left ventricular tissue of dog hearts using a modification of the method described by SOLARO et al, Biochem. Biophys. Acta, 245, 259-262, (1971). Before centrifugration, the heart homogenate was filtered through gauze.
After Triton X-100 treatments, the myofibrillar fraction was washed once by resuspension and centrifugation in 10 volumes of 1 mM EGTA, […], 30 mM imidazole, 2 mM MgCl2, pH 7.0. The pellet was then washed three times in 10 volumes of the same buffer without EGTA. Before the last centrifugation, the suspension of myofibrils was filtered through a stainless steel sieve with 0.25 mm meshes.
Myofibrils were kept in pellet overnight. Before use, the pellet was suspended in a small amount of buffer, the protein concentration was determined by the method of BRADFORD M., Anal. Biochem., 1976, 72, 248 and adjusted in order to have a concentration between 6 and 7 mg/ml.
(b) Myofibrillar ATPase activity
Ca++-dependent myfibrillar ATPase activity was determined at 21° C., pH 7.0, by measuring the rate of release of inorganic phosphate. All assays were performed within 24 hrs. of final purification, using the method described by SOLARO and RUEGG, CIRC. RES., 51, 290-4, (1982). Reaction mixtures (4 ml) containing 0.6-0.7 mg/ml myofibrillar protein, 80 mM KCl, 20 mM imidazole, 3 mM […], 1 mM EGTA, the desired amount of CaCl2, and the indicated concentration of drug or appropriate vehicle were preincubated for 6 min. prior to assay. The amount of CaCl2 was varied between 0 and 0.9 mM and the pCA (-log free Ca++) computed using 2.514×10^6 M^-1 as the apparent affinity of Ca++for EGTA at pH 7.0.
Reactions were initiated by the addition of Na2 ATP to final concentration of 2 mM. After an incubation period of 12 min., reactions were quenched by the addition of an equal volume of ice-cold 10% trichloroacetic acid. The protein was pelleted by centrifugation (2000 g, 15 min.) and Pi was assayed in the supernatant fraction using a modification of the method described by LANZETTA et al, Anal. Biochem., 100, 95-97, (1979).
The following solutions were prepared:
(1) 3.7% ammonium heptamolybdate in 0.12N H2 SO4
(2) 0.074% malachite green oxalate in 1% polyvinylic alcohol.
the colour reagent was prepared by mixing an equal volume of solution (1) and (2) 15 min. before the assay. For the assay, 1700 μl of 1% H2 SO4 and 1 ml of colour reagent were added to 100 μl of sample. Colour development occurred at room temperature for 30 min. and was quenched by the addition of 200 μl of 1M tri-potassium citrate. The absorbance was measured at 620 millimicrons.
The effect of each compound, tested at the indicated concentration, on the relation between pCa and percent activation was determined taking 100% for the maximum ATPase activity obtained with vehicle alone. The effect on Ca++ sensitivity was quantified by measuring the shift of the pCa giving 50% of the maximal control ATPase activity.
The effect on maximal ATPase activity was expressed as the percent change of ATPase activity for pCa=5.47.

[2] = test system: conscious instrumented Dog; experiment: Cardiotonic activity in the conscious instrumented Dog; format: in vivo, dog (male Beagle); conditions: Canis lupus familiaris, po; for change in vivo at 0.3 mg/kg: 0.30 mg/kg p.o.; for change in vivo at 3 mg/kg: 3.00 mg/kg p.o.; for change in vivo at 0.03 mg/kg: 0.03 mg/kg p.o.; for change in vivo at 0.1 mg/kg: 0.10 mg/kg p.o.
Experimental: Cardiotonic activity in the conscious instrumented Dog
Male Beagle dogs, at least 2 years old, weighing 12 to 18 kg were anaesthetised with pentobarbital sodium (30 mg/kg i.v.). Respiration was maintained by a Harward pump, model 613a. The heart was exposed through a left thoracotomy and a pericardial cardle was formed. A high fidelity micromanometer (Koenigsberg P5 -P7) was inserted into left venitricular lumen through a stab incision at the apex. Wires were exteriorised to the back of the animals, placed into a size adapted jacket, and the chest closed. The experiments were conducted on the conscious dogs, 1 or 2 weeks after the surgery, when the animals had completely recovered.
Measured parameters were : first derivative of left ventricular pressure, (dP/dt, mmHg/sec); heart rate (HR, beats/min.). A control period recording of 90 min. was made with the dogs placed in a quiet room, the recordings being made outside. Compounds to be tested were administered orally in gelatin capsules and the parameters measured for 5 hrs. at least.
Results were expressed as the percentage of the maximum±SEM.

[3] = read-out: H.R. (heart rate), percentage of the maximum ± SEM
[4] = read-out: dP/dt Max (first derivative of left ventricular pressure), percentage of the maximum ± SEM

SMILES | Max ATPase activity (%) (percent change of ATPase activity for pCa=5.47) ([1]; 20 × 10^-5 molar) | Ca2+ sensitivity p CA50 (shift of the pCa giving 50% of the maximal control ATPase activity) ([1]; 20 × 10^-5 molar) | Max ATPase activity (%) (percent change of ATPase activity for pCa=5.47) ([1]; 3 × 10^-5 molar) | Ca2+ sensitivity p CA50 (shift of the pCa giving 50% of the maximal control ATPase activity) ([1]; 3 × 10^-5 molar) | change in vivo at 0.3 mg/kg [2, 3] [%] | change in vivo at 0.3 mg/kg [2, 4] [%] | further results
CC1SC(=O)NN=C1c1ccc2c(c1)C1(CCCS1)C(=O)N2 (stereo not shown) [Example 21, 5'-(3,6-Dihydro-6-methyl-2-oxo-2H-1,3,4-thiadiazin-5-yl) -spiro-[thiolane-2,3'-[3H]-indol]-2'(1'H)-one] |  |  |  |  | 9 | 42 | Max ATPase activity (%) (percent change of ATPase activity for pCa=5.47) ([1]; 1 × 10^-5 molar): -7 ± 2%; Ca2+ sensitivity p CA50 (shift of the pCa giving 50% of the maximal control ATPase activity) ([1]; 1 × 10^-5 molar): 0.46 ± 0.04
CSC1C(=O)Nc2ccc(C3=NNC(=O)SC3)cc21 (stereo not shown) [Example 11, 1,3-Dihydro-5-(3,6-dihydro-2-oxo-2H-1,3,4-thiadiazin-5-yl) -3-methylthio-2H-indol-2-one] | +1 ± 0% | 0.36 ± 0.05 |  |  |  |  | change in vivo at 3 mg/kg [2, 3]: 7%; change in vivo at 3 mg/kg [2, 4]: 51%
CC1SC(=O)NN=C1c1ccc2c(c1)C1(SCCS1)C(=O)N2 (stereo not shown) [Example 13, 5'-(3,6-Dihydro-6-methyl-2-oxo-2H-1,3,4 thiadiazin-5-yl) -spiro 1,3-dithiolane-2,3'-3H indol-2(1'H)-one] |  |  | -11 ± 5% | 0.58 ± 0.04 | 15 | 43 | 
CC1SC(=O)NN=C1c1ccc2c(c1)C1(SCCCS1)C(=O)N2 (stereo not shown) [Example 14, 5'-(3,6-Dihydro-6-methyl-2-oxo-2H-1,3,4-thiadiazin-5-yl) -spiro[1,3-dithiane-2,3'-[3H]indol]-2(1'H)-one] |  |  | +4 ± 1% | 0.71 ± 0.09 | 22 | 30 | 
CC1SC(=O)NN=C1c1ccc2c(c1)C(C)(C)C(=O)N2 (stereo not shown) [Example 3] | -12 ± 2% | 0.32 ± 0.06 |  |  |  |  | change in vivo at 0.03 mg/kg [2, 3]: 8%; change in vivo at 0.03 mg/kg [2, 4]: 71%
CSC1(C)C(=O)Nc2ccc(C3=NNC(=O)SC3C)cc21 (stereo not shown) [Example 5, 1,3-Dihydro-5-(3,6-dihydro-6-methyl-2-oxo-2H-1,3,4-thiadiazin-5-yl)-3-methyl-3-methylthio-2H-indol-2-one] | -8 ± 1% | 0.40 ± 0.08 |  |  |  |  | change in vivo at 0.03 mg/kg [2, 3]: 16%; change in vivo at 0.03 mg/kg [2, 4]: 45%

More lines, main results first:

Max ATPase activity (%) (percent change of ATPase activity for pCa=5.47) ([1]; 20 × 10^-5 molar) | Ca2+ sensitivity p CA50 (shift of the pCa giving 50% of the maximal control ATPase activity) ([1]; 20 × 10^-5 molar) | Max ATPase activity (%) (percent change of ATPase activity for pCa=5.47) ([1]; 3 × 10^-5 molar) | Ca2+ sensitivity p CA50 (shift of the pCa giving 50% of the maximal control ATPase activity) ([1]; 3 × 10^-5 molar) | SMILES | change in vivo at 0.3 mg/kg [2, 3] [%] | change in vivo at 0.3 mg/kg [2, 4] [%] | further results
 |  | -5 ± 3% | 0.21 ± 0.05 | O=C1NN=C(c2ccc3c(c2)C2(CCCS2)C(=O)N3)CS1 (stereo not shown) [Example 20, 5'-(3,6-Dihydro-2-oxo-2H-1,3,4-thiadiazin-5-yl)-spiro [thiolane-2,3'-[3H]-indol]-2'(1'H)-one] |  |  | change in vivo at 3 mg/kg [2, 3]: 8%; change in vivo at 3 mg/kg [2, 4]: 45%
 |  | +3 ± 3% | 0.19 ± 0.03 | CC1SC(=O)NN=C1c1ccc2c(c1)C(C)(C)C(=O)N2C (stereo not shown) [Example 18, 1,3-Dihydro-5-(3,6-dihydro-6-methyl-2-oxo-2H-1,3,4-thiadiazin-5-yl)-1,3,3-trimethyl-2H-indol-2-one] | 28 | 74 | 
 |  | -1 ± 2% | 0.45 ± 0.05 | CC1SC(=O)NN=C1c1ccc2c(c1)C(C)(C)CC(=O)N2 (stereo not shown) [Example 35, 3,4-Dihydro-6-(3,6-dihydro-6-methyl-2-oxo-2H-1,3,4-thiadiazin-5-yl)-4,4-dimethyl-2(1H)-quinolinone] |  |  | change in vivo at 0.1 mg/kg [2, 3]: 20%; change in vivo at 0.1 mg/kg [2, 4]: 49%
 |  | -4 ± 3% | 0.33 ± 0.07 | CC1SC(=O)NN=C1c1ccc2c(c1)CC(C)(C)C(=O)N2 (stereo not shown) [Example 36, 3,4-Dihydro-6-(3,6-dihydro-6-methyl-2-oxo-2H-1,3,4-thiadiazin-5-yl)-3,3-dimethyl-2(1H)-quinolinone] |  |  | change in vivo at 0.1 mg/kg [2, 3]: 7%; change in vivo at 0.1 mg/kg [2, 4]: 46%

Reference: US4933336A, “Thiadiazinone, oxadiazinone and triazinone derivatives, and their use for treating acute or chronic heart disease” (Laboratoires Sobio S.A., priority 1987, dated 1990)
